Test results from patent US20250179013A1, “INHIBITORS OF RNA HELICASE DHX9 AND USES THEREOF” (ACCENT THERAPEUTICS, INC., priority 2022, published 2025).
Like-named read-outs stand apart in the source and are kept apart here.

Target: T1, Human recombinant DHX9 protein (Homo sapiens, UniProt Q08211)
T1 construct: purchased Viva
Assay: DHX9 ATPase assay (ADP-Glo biochemical assay)
Conditions: for DHX9 Biochemical Max Inhibition: maximum inhibition in ATPase assay, 10 μM Aurintricarboxylic acid = 100%

[1] = read-out: DHX9 Biochemical Inflection Point

T1 sequence (Q08211 whole entry): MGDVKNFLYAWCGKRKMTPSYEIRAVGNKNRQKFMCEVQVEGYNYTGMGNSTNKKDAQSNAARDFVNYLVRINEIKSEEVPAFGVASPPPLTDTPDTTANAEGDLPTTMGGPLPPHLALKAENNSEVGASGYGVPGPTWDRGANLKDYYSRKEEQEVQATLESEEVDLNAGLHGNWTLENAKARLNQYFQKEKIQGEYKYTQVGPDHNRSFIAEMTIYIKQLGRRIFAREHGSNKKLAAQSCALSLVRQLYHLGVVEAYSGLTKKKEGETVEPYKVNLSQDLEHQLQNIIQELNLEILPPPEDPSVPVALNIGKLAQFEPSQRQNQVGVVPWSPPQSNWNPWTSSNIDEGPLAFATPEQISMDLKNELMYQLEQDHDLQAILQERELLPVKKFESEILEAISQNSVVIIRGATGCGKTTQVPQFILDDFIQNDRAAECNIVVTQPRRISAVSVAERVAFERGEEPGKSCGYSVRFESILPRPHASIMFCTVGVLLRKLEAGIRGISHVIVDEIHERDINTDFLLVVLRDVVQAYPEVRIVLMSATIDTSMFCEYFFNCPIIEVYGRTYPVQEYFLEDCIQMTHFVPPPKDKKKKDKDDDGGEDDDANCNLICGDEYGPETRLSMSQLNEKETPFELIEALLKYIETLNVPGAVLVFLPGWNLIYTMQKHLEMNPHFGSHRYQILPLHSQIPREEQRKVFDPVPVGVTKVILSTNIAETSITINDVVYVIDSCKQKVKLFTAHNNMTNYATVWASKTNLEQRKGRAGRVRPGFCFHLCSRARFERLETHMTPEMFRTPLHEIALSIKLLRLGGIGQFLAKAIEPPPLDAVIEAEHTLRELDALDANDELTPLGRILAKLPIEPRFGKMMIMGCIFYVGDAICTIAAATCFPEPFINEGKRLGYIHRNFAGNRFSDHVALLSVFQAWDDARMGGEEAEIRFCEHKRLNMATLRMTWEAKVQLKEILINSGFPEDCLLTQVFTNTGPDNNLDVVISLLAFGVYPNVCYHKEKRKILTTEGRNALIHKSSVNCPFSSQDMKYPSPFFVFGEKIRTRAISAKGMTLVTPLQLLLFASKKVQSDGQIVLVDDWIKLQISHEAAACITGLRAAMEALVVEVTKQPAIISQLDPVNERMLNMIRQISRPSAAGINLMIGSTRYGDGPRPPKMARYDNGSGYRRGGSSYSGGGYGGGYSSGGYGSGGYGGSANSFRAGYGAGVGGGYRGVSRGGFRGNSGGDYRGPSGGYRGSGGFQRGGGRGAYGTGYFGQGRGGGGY

DHX9 Biochemical Max Inhibition | IC50 [1] | Compound | IC50
61.5% | 698 nM | COc1ccc(-c2cc(C(=O)Nc3cccc(NS(C)(=O)=O)c3)n[nH]2)cc1 [Example 78] | 
44.3% | 1230 nM | CS(=O)(=O)Nc1cccc(NC(=O)c2ccc(OCc3ccccc3)cc2)c1 [Example 3] | 
75% | 436 nM | CS(=O)(=O)Nc1cccc(NC(=O)c2cc(C(=O)Nc3ccccc3Oc3ccccc3)cs2)c1 [Example 115] | 
67.7% | 105 nM | CS(=O)(=O)Nc1cccc(NC(=O)c2cc(C(=O)NCc3ccc4[nH]ccc4c3)cs2)c1 [Example 145] | 
71.2% | 38.7 nM | CS(=O)(=O)Nc1cccc(NC(=O)c2cc(C(=O)Nc3nc4ccccc4[nH]3)cs2)c1 [Example 146] | 
71.7% | 126 nM | CS(=O)(=O)Nc1cccc(NC(=O)c2cc(C(=O)NCCc3cccnc3)cs2)c1 [Example 103] | 
37.7% | 2970 nM | CS(=O)(=O)Nc1cccc(NC(=O)c2ccc(-c3ccccc3)s2)c1 [Example 5] | 
69.8% | 50.7 nM | CS(=O)(=O)Nc1cccc(NC(=O)c2cc(C(=O)Nc3ccc(CCO)cc3)cs2)c1 [Example 149] | 
64.6% | 146 nM | CS(=O)(=O)Nc1cccc(NC(=O)c2cc(C(=O)Nc3ccc(-c4ccncc4)cc3)cs2)c1 [Example 128] | 
50.4% | 7270 nM | CS(=O)(=O)Nc1cccc(NC(=O)c2cc(-c3ccccc3)ccn2)c1 [Example 2] | 
68.9% | 1070 nM | CC(C)Oc1cccc(NC(=O)c2csc(C(=O)Nc3cccc(NS(C)(=O)=O)c3)c2)c1 [Example 121] | 
67.5% | 105 nM | Cc1ccc(-c2csc(C(=O)Nc3cccc(NS(C)(=O)=O)c3)c2)cc1 [Example 48] | 
38.6% | 345 nM | CS(=O)(=O)Nc1cccc(NC(=O)c2ccc(-c3ccccc3)cc2)c1 [Example 38] | 
64.4% | 708 nM | CS(=O)(=O)Nc1cccc(NC(=O)c2cc(C(=O)Nc3ccc(OC(F)(F)F)cc3)cs2)c1 [Example 108] | 
73.3% | 804 nM | Cc1nc(-c2cc(C(=O)Nc3cccc(NS(C)(=O)=O)c3)co2)cs1 [Example 7] | 
64.7% | 229 nM | Cc1nc(-c2cccc(NC(=O)c3csc(C(=O)Nc4cccc(NS(C)(=O)=O)c4)c3)c2)cs1 [Example 147] | 
55.3% | 994 nM | CS(=O)(=O)Nc1cccc(NC(=O)c2ccc(-n3cccn3)cc2)c1 [Example 39] | 
56.3% | 1860 nM | CS(=O)(=O)Nc1cccc(NC(=O)c2cc(-c3ccccc3)[nH]n2)c1 [Example 36] | 
67.9% | 5770 nM | CS(=O)(=O)Nc1cccc(NC(=O)c2csc(C3CC3)n2)c1 [Example 32] | 
70.3% | 210 nM | CS(=O)(=O)Nc1cccc(NC(=O)c2cc(C(=O)NCC3(O)CCCCC3)cs2)c1 [Example 105] | 
68.7% | 373 nM | CS(=O)(=O)Nc1cccc(NC(=O)c2cnn(-c3ncccn3)c2)c1 [Example 43] | 
70.4% | 4850 nM | Cc1cc(C)n(Cc2ccc(C(=O)Nc3cccc(NS(C)(=O)=O)c3)o2)n1 [Example 34] | 
79.1% | 54 nM | CS(=O)(=O)Nc1cccc(NC(=O)c2cc(-c3ccccc3)c(C(=O)O)s2)c1 [Example 101, 5-[(3-methanesulfonamidophenyl)carbamoyl]-3-phenylthiophene-2-carboxylic acid] | 
65.8% | 52.2 nM | Cn1c(=O)n(C)c2cc(NC(=O)c3csc(C(=O)Nc4cccc(NS(C)(=O)=O)c4)c3)ccc21 [Example 131] | 
74.6% | 168 nM | Cc1c(NC(=O)c2csc(C(=O)Nc3cccc(NS(C)(=O)=O)c3)c2)c(=O)n(-c2ccccc2)n1C [Example 107] | 
66.5% | 182 nM | CS(=O)(=O)Nc1cccc(NC(=O)c2cc(C(=O)NCc3ccc(CN4CCOCC4)cc3)cs2)c1 [Example 124] | 
47.7% | 1760 nM | Cc1ccccc1-c1nc(C(=O)Nc2cccc(NS(C)(=O)=O)c2)cs1 [Example 8] | 

DHX9 Biochemical Max Inhibition | IC50 [1] | Compound | IC50
67.7% | 264 nM | Cc1cccc(-c2csc(C(=O)Nc3cccc(NS(C)(=O)=O)c3)c2)c1 [Example 47] | 
70.3% | 171 nM | CS(=O)(=O)Nc1cccc(NC(=O)c2cc(C(=O)Nc3cccc(-c4cccnc4)c3)cs2)c1 [Example 133] | 
58.2% | 5360 nM | CS(=O)(=O)Nc1cccc(NC(=O)c2cc(C(=O)Nc3cc(-c4ccccc4)[nH]n3)cs2)c1 [Example 148] | 
50.7% | 2540 nM | Cc1cc(C(=O)Nc2cccc(NS(C)(=O)=O)c2)nn1C1CCOCC1 [Example 17] | 
67.3% | 504 nM | Cc1ccc(NC(=O)c2csc(C(=O)Nc3cccc(NS(C)(=O)=O)c3)c2)cc1Cl [Example 104] | 
49.6% | 6330 nM | CS(=O)(=O)Nc1cccc(NC(=O)c2csc(N3CCCCC3)n2)c1 [Example 19] | 
70.1% | 189 nM | CS(=O)(=O)Nc1cccc(NC(=O)c2cc(C(=O)NCCc3c[nH]c4ccccc34)cs2)c1 [Example 140] | 
71.7% | 1220 nM | Cc1nc(COc2ccc(C(=O)Nc3cccc(NS(C)(=O)=O)c3)cc2)cs1 [Example 22] | 
68.9% | 81.9 nM | CC(NC(=O)c1csc(C(=O)Nc2cccc(NS(C)(=O)=O)c2)c1)c1ccccc1 (centres unmarked) [Example 110] | 
69.7% | 196 nM | CS(=O)(=O)Nc1cccc(NC(=O)c2cc(C(=O)Nc3ccc(OCCN4CCOCC4)cc3)cs2)c1 [Example 122] | 
69.2% | 324 nM | COc1ccc(NC(=O)c2csc(C(=O)Nc3cccc(NS(C)(=O)=O)c3)c2)cc1 [Example 130] | 
69.3% | 1490 nM | CS(=O)(=O)Nc1cccc(NC(=O)c2cnn(Cc3ccccc3)c2)c1 [Example 35, 1-benzyl-N-(3-methanesulfonamidophenyl)pyrazole-4-carboxamide] | 
66.2% | 99.4 nM | CC(C)Oc1ccc(NC(=O)c2csc(C(=O)Nc3cccc(NS(C)(=O)=O)c3)c2)cc1 [Example 118] | 
72.6% | 167 nM | COc1ccc(OC)c(CCNC(=O)c2csc(C(=O)Nc3cccc(NS(C)(=O)=O)c3)c2)c1 [Example 142] | 
47.5% | 5650 nM | Cc1nnc(-c2ccc(C(=O)Nc3cccc(NS(C)(=O)=O)c3)cc2)o1 [Example 11] | 
76.4% | 4080 nM | CS(=O)(=O)Nc1cccc(NC(=O)c2cccc(OCc3cccs3)c2)c1 [Example 28] | 
81.3% | 1430 nM | Cn1nc(C(=O)Nc2cccc(NS(C)(=O)=O)c2)cc1C1CCCC1 [Example 29] | 
68.6% | 102 nM | CS(=O)(=O)Nc1cccc(NC(=O)c2cc(C(=O)NCCN3CCCCC3)cs2)c1 [Example 150] | 
68.3% | 59.2 nM | CS(=O)(=O)Nc1cccc(NC(=O)c2cc(C(=O)Nc3cccc4c3CCO4)cs2)c1 [Example 123] | 
76.6% | 116 nM | CS(=O)(=O)Nc1cccc(NC(=O)c2cc(C(=O)Nc3ccccc3CC#N)cs2)c1 [Example 138] | 
73.3% | 91.5 nM | CS(=O)(=O)Nc1cccc(NC(=O)c2cc(C(=O)Nc3ccccc3CCO)cs2)c1 [Example 143] | 
67.1% | 2320 nM | Cc1cc(C(=O)Nc2cccc(NS(C)(=O)=O)c2)c(C)n1C1CC1 [Example 25] | 
51.4% | 943 nM | CS(=O)(=O)Nc1cccc(NC(=O)c2ccc(-n3cccc3)cc2)c1 [Example 23] | 
68.9% | 101 nM | CS(=O)(=O)Nc1cccc(NC(=O)c2cc(C(=O)NC3Cc4ccccc4C3)cs2)c1 [Example 112] | 
67% | 1720 nM | CS(=O)(=O)Nc1cccc(NC(=O)c2cccc(-c3ccccc3)c2)c1 [Example 37] | 
58.6% | 92400 nM | CCn1ncc(C(=O)Nc2cccc(NS(C)(=O)=O)c2)c1C1CC1 [Example 18] | 
68.5% | 81.1 nM | CS(=O)(=O)Nc1cccc(NC(=O)c2cc(C(=O)NCCC3CC3)cs2)c1 [Example 162] | 

Compound | DHX9 Biochemical Max Inhibition | IC50 [1] | IC50
CS(=O)(=O)Nc1cccc(NC(=O)c2cc(NCc3ccccc3)cs2)c1 [Example 155, 4-(benzylamino)-N-(3-(methylsulfonamido)phenyl)thiophene-2-carboxamide] | 72.3% | 1010 nM | 
CS(=O)(=O)Nc1cccc(NC(=O)c2cc(-c3ccccc3)c(Br)s2)c1 [Example 98, 5-bromo-N-(3-(methylsulfonamido)phenyl)-4-phenylthiophene-2-carboxamide] | 77.7% | 543 nM | 
Cc1cc(C(=O)Nc2cccc(NS(C)(=O)=O)c2)nn1Cc1ccccc1 [Example 154, 1-benzyl-N-(3-methanesulfonamidophenyl)-5-methyl-1H-pyrazole-3-carboxamide] | 68.4% | 3890 nM | 
CS(=O)(=O)Nc1cccc(NC(=O)c2cc(-c3ccccc3)cs2)n1 [Example 156, N-(6-methanesulfonamidopyridin-2-yl)-4-phenylthiophene-2-carboxamide] | 63.7% |  | 1920 nM
